≈ marks a conversion by molar mass, not a printed value. Read-outs that look alike come from different tables or passages of the source. Non-standard residues stand in square brackets, D forms with d. Residues, ends and D or L forms follow the SMILES beside them. ξ: configuration not given here. Trp(5-F) = N[C@@H](Cc1c[nH]c2ccc(F)cc12)C(=O)O; ξTrp(5-Me) = Cc1ccc2[nH]cc(CC(N)C(=O)O)c2c1
How the values were obtained:
Type in all cases: cell-based
[1] = test system: Acinetobacter baumannii (ATCC 17978)
Text: (§1) The bacterial strains for the antimicrobial assay were obtained from the ATCC (American Type Culture Collection, Manassas, VA, USA) and NCTC (National Collection of Type Cultures, Salisbury, UK). Gram-negative strains were Pseudomonas aeruginosa (ATCC 27853), Escherichia coli (ATCC 8739, ATCC 35218, and ATCC 25922), Salmonella enterica (ATCC 13076), Klebsiella pneumoniae (NCTC 13440), Acinetobacter baumannii (ATCC 17978) and the Gram-positive strains were Enterococcus faecalis (ATCC 29212), Listeria monocytogenes (ATCC 19111), and Staphylococcus aureus (HNCMO112011 and ATCC 25923).
(§2) Determination of antibacterial activity for the peptides was carried out by utilizing a minimum bactericidal concentration (MBC) bioassay. Synthesized peptides were dissolved in sterile water and used from 25 to 0.125 μM in 2-fold dilution series and incubated with ~10^7 log phase bacteria in Potassium-Phosphate Buffer (PPB, pH: 7.4) for three hours as described earlier. After that, 5 μl of each sample was placed on LB agar and the growth of bacteria was monitored after overnight incubation at 37 °C. The lowest concentration of the antimicrobial agents that completely eliminated viable bacteria was considered the minimal bactericidal concentration (MBC).

[2] = test system: Enterococcus faecalis (ATCC 29212)
Text: as §1, §2

[3] = test system: Pseudomonas aeruginosa (ATCC 27853); settings: ATCC 27853, 3 h, pH 7.4
Text: as §1, §2

[4] = test system: Listeria monocytogenes (ATCC 19111); settings: ATCC 19111, 3 h, pH 7.4
Text: as §1, §2

[5] = test system: Salmonella enterica (ATCC 13076); settings: ATCC 13076, 3 h, pH 7.4
Text: as §1, §2

[6] = test system: Klebsiella pneumoniae (NCTC 13440); settings: NCTC 13440, 3 h, pH 7.4
Text: as §1, §2

[7] = test system: Staphylococcus aureus (HNCMO112011); settings: HNCMO112011, 3 h, pH 7.4
Text: as §1, §2

[8] = test system: Escherichia coli (ATCC 8739); settings: ATCC 8739, 3 h, pH 7.4
Text: as §1, §2

[9] = Acinetobacter baumannii ATCC 17978, ~10^7 log phase bacteria, 3 h in PPB pH 7.4, peptide 25 to 0.125 μM 2-fold series, plated on LB agar, overnight 37 °C

CC[C@H](C)[C@H](NC(=O)[C@H](CCCCN)NC(=O)[C@H](Cc1ccccc1)NC(=O)[C@H](CC(C)C)NC(=O)[C@@H]1CCCN1C(=O)[C@H](CCCCN)NC(=O)[C@H](CCCCN)NC(=O)[C@H](CO)NC(=O)[C@@H](N)CCCCN)C(=O)NC(Cc1c[nH]c2ccc(C)cc12)C(=O)N[C@@H](CCCCN)C(=O)N[C@@H](CO)C(=O)N[C@H](C(=O)N[C@@H](CCC(=O)O)C(=O)N[C@@H](CC(N)=O)C(=O)N[C@H](C(=O)N[C@@H](CO)C(=O)N[C@H](C(=O)N[C@@H](CC(C)C)C(=O)N[C@@H](Cc1c[nH]c2ccccc12)C(=O)N[C@@H](Cc1ccc(O)cc1)C(=O)N[C@@H](CCCCN)C(N)=O)C(C)C)C(C)C)C(C)C (some centres unmarked) [NCR169C17–38C12,17/S-10W^5-Me II] (H-KSKKPLFKI[ξTrp(5-Me)]KSVENVSVLWYK-NH2; N-terminus assumed)
Minimal bactericidal concentration (MBC) A. b. [1, 9]: 3.1 µM (≈ 8.44 µg/mL) | Minimal bactericidal concentration (MBC) E. f. ([2]; ATCC 29212, 3 h, pH 7.4): 3.1 µM (≈ 8.44 µg/mL) | Minimal bactericidal concentration (MBC) P. a. [3]: 3.1 µM (≈ 8.44 µg/mL) | Minimal bactericidal concentration (MBC) L. m. [4]: 3.1 µM (≈ 8.44 µg/mL) | Minimal bactericidal concentration (MBC) S. e. [5]: 3.1 µM (≈ 8.44 µg/mL) | Minimal bactericidal concentration (MBC) K. p. [6]: 6.3 µM (≈ 17.1 µg/mL) | Minimal bactericidal concentration (MBC) S. a. [7]: 3.1 µM (≈ 8.44 µg/mL) | Minimal bactericidal concentration (MBC) E. c. [8]: 3.1 µM (≈ 8.44 µg/mL)

CC[C@H](C)[C@H](NC(=O)[C@H](CCCCN)NC(=O)[C@H](Cc1ccccc1)NC(=O)[C@H](CC(C)C)NC(=O)[C@@H]1CCCN1C(=O)[C@H](CCCCN)NC(=O)[C@H](CCCCN)NC(=O)[C@H](CO)NC(=O)[C@@H](N)CCCCN)C(=O)NC(Cc1c[nH]c2ccc(C)cc12)C(=O)N[C@@H](CCCCN)C(=O)N[C@@H](CO)C(=O)N[C@H](C(=O)N[C@@H](CCC(=O)O)C(=O)N[C@@H](CC(N)=O)C(=O)N[C@H](C(=O)N[C@@H](CO)C(=O)N[C@H](C(=O)N[C@@H](CC(C)C)C(=O)N[C@@H](Cc1c[nH]c2ccccc12)C(=O)N[C@@H](Cc1ccc(O)cc1)C(=O)N[C@@H](CCCCN)C(N)=O)C(C)C)C(C)C)C(C)C (some centres unmarked) [NCR169C17–38C12,17/S-10W^5-Me I] (H-KSKKPLFKI[ξTrp(5-Me)]KSVENVSVLWYK-NH2; N-terminus assumed)
Minimal bactericidal concentration (MBC) A. b. [1, 9]: 6.3 µM (≈ 17.1 µg/mL) | Minimal bactericidal concentration (MBC) E. f. ([2]; ATCC 29212, 3 h, pH 7.4): 3.1 µM (≈ 8.44 µg/mL) | Minimal bactericidal concentration (MBC) P. a. [3]: 3.1 µM (≈ 8.44 µg/mL) | Minimal bactericidal concentration (MBC) L. m. [4]: 3.1 µM (≈ 8.44 µg/mL) | Minimal bactericidal concentration (MBC) S. e. [5]: 3.1 µM (≈ 8.44 µg/mL) | Minimal bactericidal concentration (MBC) K. p. [6]: 6.3 µM (≈ 17.1 µg/mL) | Minimal bactericidal concentration (MBC) S. a. [7]: 3.1 µM (≈ 8.44 µg/mL) | Minimal bactericidal concentration (MBC) E. c. [8]: 3.1 µM (≈ 8.44 µg/mL)

CC[C@H](C)[C@H](NC(=O)[C@H](CCCCN)NC(=O)[C@H](Cc1ccccc1)NC(=O)[C@H](CC(C)C)NC(=O)[C@@H]1CCCN1C(=O)[C@H](CCCCN)NC(=O)[C@H](CCCCN)NC(=O)[C@H](CO)NC(=O)[C@@H](N)CCCCN)C(=O)N[C@@H](Cc1c[nH]c2ccccc12)C(=O)N[C@@H](CCCCN)C(=O)N[C@@H](CO)C(=O)N[C@H](C(=O)N[C@@H](CCC(=O)O)C(=O)N[C@@H](CC(N)=O)C(=O)N[C@H](C(=O)N[C@@H](CO)C(=O)N[C@H](C(=O)N[C@@H](CC(C)C)C(=O)N[C@@H](Cc1c[nH]c2ccc(F)cc12)C(=O)N[C@@H](Cc1ccc(O)cc1)C(=O)N[C@@H](CCCCN)C(N)=O)C(C)C)C(C)C)C(C)C [NCR169C17–38C12,17/S-20W^5-F-L] (H-KSKKPLFKIWKSVENVSVL[Trp(5-F)]YK-NH2; N-terminus assumed)
Minimal bactericidal concentration (MBC) A. b. ([1]; ATCC 17978, 3 h, pH 7.4): 3.1 µM (≈ 8.45 µg/mL) | Minimal bactericidal concentration (MBC) E. f. ([2]; ATCC 29212, 3 h, pH 7.4): 3.1 µM (≈ 8.45 µg/mL) | Minimal bactericidal concentration (MBC) P. a. [3]: 6.3 µM (≈ 17.2 µg/mL) | Minimal bactericidal concentration (MBC) L. m. [4]: 3.1 µM (≈ 8.45 µg/mL) | Minimal bactericidal concentration (MBC) S. e. [5]: 3.1 µM (≈ 8.45 µg/mL) | Minimal bactericidal concentration (MBC) K. p. [6]: 3.1 µM (≈ 8.45 µg/mL) | Minimal bactericidal concentration (MBC) S. a. [7]: 1.6 µM (≈ 4.36 µg/mL) | Minimal bactericidal concentration (MBC) E. c. [8]: 3.1 µM (≈ 8.45 µg/mL)

CC[C@H](C)[C@H](NC(=O)[C@H](CCCCN)NC(=O)[C@H](Cc1ccccc1)NC(=O)[C@H](CC(C)C)NC(=O)[C@@H]1CCCN1C(=O)[C@H](CCCCN)NC(=O)[C@H](CCCCN)NC(=O)[C@H](CO)NC(=O)[C@@H](N)CCCCN)C(=O)N[C@@H](Cc1c[nH]c2ccccc12)C(=O)N[C@@H](CCCCN)C(=O)N[C@@H](CO)C(=O)N[C@H](C(=O)N[C@@H](CCC(=O)O)C(=O)N[C@@H](CC(N)=O)C(=O)N[C@H](C(=O)N[C@@H](CO)C(=O)N[C@H](C(=O)N[C@@H](CC(C)C)C(=O)NC(Cc1c[nH]c2ccc(C)cc12)C(=O)N[C@@H](Cc1ccc(O)cc1)C(=O)N[C@@H](CCCCN)C(N)=O)C(C)C)C(C)C)C(C)C (some centres unmarked) [NCR169C17–38C12,17/S-20W^5-Me II] (H-KSKKPLFKIWKSVENVSVL[ξTrp(5-Me)]YK-NH2; N-terminus assumed)
Minimal bactericidal concentration (MBC) A. b. ([1]; ATCC 17978, 3 h, pH 7.4): 3.1 µM (≈ 8.44 µg/mL) | Minimal bactericidal concentration (MBC) E. f. ([2]; Enterococcus faecalis ATCC 29212, ~10^7 log phase bacteria, 3 h in potassium-phosphate buffer (PPB) pH 7.4, peptide 25 to 0.125 μM 2-fold series, 5 μl on LB agar, overnight 37 °C): 25 µM (≈ 68 µg/mL) | Minimal bactericidal concentration (MBC) P. a. [3]: 3.1 µM (≈ 8.44 µg/mL) | Minimal bactericidal concentration (MBC) L. m. [4]: 3.1 µM (≈ 8.44 µg/mL) | Minimal bactericidal concentration (MBC) S. e. [5]: 3.1 µM (≈ 8.44 µg/mL) | Minimal bactericidal concentration (MBC) K. p. [6]: 3.1 µM (≈ 8.44 µg/mL) | Minimal bactericidal concentration (MBC) S. a. [7]: 3.1 µM (≈ 8.44 µg/mL) | Minimal bactericidal concentration (MBC) E. c. [8]: 1.6 µM (≈ 4.35 µg/mL)

CC[C@H](C)[C@H](NC(=O)[C@H](CCCCN)NC(=O)[C@H](Cc1ccccc1)NC(=O)[C@H](CC(C)C)NC(=O)[C@@H]1CCCN1C(=O)[C@H](CCCCN)NC(=O)[C@H](CCCCN)NC(=O)[C@H](CO)NC(=O)[C@@H](N)CCCCN)C(=O)N[C@@H](C)C(=O)N[C@@H](CCCCN)C(=O)N[C@@H](CO)C(=O)N[C@H](C(=O)N[C@@H](CCC(=O)O)C(=O)N[C@@H](CC(N)=O)C(=O)N[C@H](C(=O)N[C@@H](CO)C(=O)N[C@H](C(=O)N[C@@H](CC(C)C)C(=O)N[C@@H](C)C(=O)N[C@@H](Cc1ccc(O)cc1)C(=O)N[C@@H](CCCCN)C(N)=O)C(C)C)C(C)C)C(C)C [NCR169C17–38W10,20/A,C12,17/S] (H-KSKKPLFKIAKSVENVSVLAYK-NH2)
Minimal bactericidal concentration (MBC) A. b. ([1]; ATCC 17978, 3 h, pH 7.4): 12.5 µM (≈ 31 µg/mL) | Minimal bactericidal concentration (MBC) E. f. ([2]; ATCC 29212, 3 h, pH 7.4): 25 µM (≈ 61.9 µg/mL) | Minimal bactericidal concentration (MBC) P. a. [3]: 3.1 µM (≈ 7.68 µg/mL) | Minimal bactericidal concentration (MBC) L. m. [4]: 3.1 µM (≈ 7.68 µg/mL) | Minimal bactericidal concentration (MBC) S. e. [5]: 6.3 µM (≈ 15.6 µg/mL) | Minimal bactericidal concentration (MBC) S. a. [7]: 6.3 µM (≈ 15.6 µg/mL) | Minimal bactericidal concentration (MBC) E. c. [8]: 6.3 µM (≈ 15.6 µg/mL)

CC[C@H](C)[C@H](NC(=O)[C@H](CCCCN)NC(=O)[C@H](Cc1ccccc1)NC(=O)[C@H](CC(C)C)NC(=O)[C@@H]1CCCN1C(=O)[C@H](CCCCN)NC(=O)[C@H](CCCCN)NC(=O)[C@H](CO)NC(=O)[C@@H](N)CCCCN)C(=O)N[C@@H](C)C(=O)N[C@@H](CCCCN)C(=O)N[C@@H](C)C(=O)N[C@H](C(=O)N[C@@H](CCC(=O)O)C(=O)N[C@@H](CC(N)=O)C(=O)N[C@H](C(=O)N[C@@H](C)C(=O)N[C@H](C(=O)N[C@@H](CC(C)C)C(=O)N[C@@H](C)C(=O)N[C@@H](Cc1ccc(O)cc1)C(=O)N[C@@H](CCCCN)C(N)=O)C(C)C)C(C)C)C(C)C [NCR169C17–38W10,20C12,17/A] (H-KSKKPLFKIAKAVENVAVLAYK-NH2)
Minimal bactericidal concentration (MBC) A. b. ([1]; ATCC 17978, 3 h, pH 7.4): 12.5 µM (≈ 30.6 µg/mL) | Minimal bactericidal concentration (MBC) P. a. [3]: 3.1 µM (≈ 7.58 µg/mL) | Minimal bactericidal concentration (MBC) S. e. [5]: 6.3 µM (≈ 15.4 µg/mL) | Minimal bactericidal concentration (MBC) S. a. [7]: 6.3 µM (≈ 15.4 µg/mL) | Minimal bactericidal concentration (MBC) E. c. [8]: 6.3 µM (≈ 15.4 µg/mL)

From article PMC9917201, “Enhanced Antibacterial Activity of Substituted Derivatives of NCR169C Peptide” (International Journal of Molecular Sciences, 2023)
